Experimental data: publication PMC5537602, “TRPA1 channel mediates organophosphate-induced delayed neuropathy” (Cell Discovery, 2017)

Tests used:
[1] = test system: hTRPA1 carrying single mutations (C414A, C421A, C621A, C641A, C665A or K710R); assay: Whole-cell patch-clamp of mutant hTRPA1 channels; format: cell-based, human; conditions: 30 μM malathion
Description: Human embryonic kidney 293 (HEK293) cells were cultured in DMEM containing 10% (vol/vol) heat-inactivated fetal bovine serum, 100 units ml^−1 penicillin–streptomycin and 2 mM L-glutamine at 37 °C in a humidity-controlled sterile incubator with 5% CO2. All cell culture reagents were purchased from Life Technologies. HEK293 cells were transfected transiently with the corresponding plasmids using lipofectamine 2000 (Life Technologies). Transfection efficiency was monitored by co-transfecting EGFP plasmid which codes for the enhanced green fluorescent protein. Electrophysiological recordings were performed between 24 and 36 h after transfection.
Whole-cell patch-clamp recordings in DRG neurons (small diameter, […]) and HEK293 cells were operated at room temperature (23–25 °C) using EPC-10 amplifier and Patch Master Software (HEKA). […] Currents were sampled at 10 kHz and low-pass filtered at 2.9 kHz. The internal solution was as follows (in mM): 140 CsCl, 10 HEPES, 5 EGTA, 0.1 CaCl2 and 1 MgCl2, with pH adjusted to 7.2 by CsOH and osmolarity 295–300 mOsm. […] TRPA1 currents development was monitored with repetitive injections of 300 ms duration voltage ramps from −100 to +100 mV every 2 s and the holding potential was set to 0 mV for 50 ms, existing in both sides of the voltage ramp. […]

TRPV3 = biological target: T1, TRPV3 (Homo sapiens, UniProt Q8NET8); assay: Calcium fluorescence signal, HEK293 cells overexpressing TRPV3; format: cell-based; conditions: 10 μM
T1 construct: expressed in transfected cells; host or cells: HEK293
T1 sequence (Q8NET8 1-790): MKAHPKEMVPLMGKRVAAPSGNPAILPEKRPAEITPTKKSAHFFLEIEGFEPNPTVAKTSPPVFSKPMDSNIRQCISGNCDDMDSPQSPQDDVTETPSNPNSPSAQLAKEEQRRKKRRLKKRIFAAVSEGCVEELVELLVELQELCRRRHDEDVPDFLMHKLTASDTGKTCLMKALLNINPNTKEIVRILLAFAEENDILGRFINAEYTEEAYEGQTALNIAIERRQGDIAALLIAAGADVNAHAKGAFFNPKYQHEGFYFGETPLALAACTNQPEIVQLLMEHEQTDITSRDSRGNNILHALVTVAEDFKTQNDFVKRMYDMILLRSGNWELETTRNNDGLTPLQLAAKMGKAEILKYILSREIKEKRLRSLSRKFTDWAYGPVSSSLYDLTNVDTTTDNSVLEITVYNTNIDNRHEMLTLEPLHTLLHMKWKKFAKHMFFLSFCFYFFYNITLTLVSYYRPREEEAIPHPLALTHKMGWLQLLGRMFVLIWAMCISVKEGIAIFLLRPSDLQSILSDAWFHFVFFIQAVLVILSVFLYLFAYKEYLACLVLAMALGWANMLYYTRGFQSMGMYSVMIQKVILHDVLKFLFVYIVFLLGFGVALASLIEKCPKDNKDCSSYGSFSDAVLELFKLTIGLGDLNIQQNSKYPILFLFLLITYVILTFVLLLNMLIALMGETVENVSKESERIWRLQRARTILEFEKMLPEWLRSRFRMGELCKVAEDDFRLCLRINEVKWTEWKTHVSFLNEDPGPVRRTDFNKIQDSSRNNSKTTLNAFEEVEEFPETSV
Description: (§1) Figure S3. Specificity of malathion for TRPA1 channels. (A-F) Time course of the fluorescence signal induced by malathion (Mala, 10 μM) and the indicated positive agonists (10 μM) in HEK293 cells overexpressing TRPV1 (A), TRPV3 (B), TRPV4 (C), TRPM8 (D), TRPC4 (E) and TRPC5 (F) channels. The fluorescence signals are scaled as F/F0. EC indicates external solution. […]
(§2) cells for each tested TRP channel. All bars are presented as the mean ± SEM. […]

mTRPA1 = mTRPA1 (Mus musculus, UniProt Q8BLA8); assay: FDSS Ca2+-influx assay, HEK293 cells stably expressing mTRPA1; format: cell-based; set-up: expressed in transfected cells; conditions: HEK293 cells, change in [Ca2+]i; read-out: EC50, activation of mTRPA1
Description: Ca^2+-influx assays were carried out using HEK293 cells stably expressing mTRPA1 channels with an FDSS screening system (Hamamatsu, Japan). Before the start of the assay, HEK293-mTRPA1 cells were plated onto poly-D-Lysine (40 μg ml^−1) coated 96-well black clear bottom plate with the cell density of 300 000 cells per milliliter in DMEM supplemented with 10% (vol/vol) fetal bovine serum, 200 μg ml^−1 Hygromycin B, 15 μg ml^−1 Blasticidin S HCL and 0.3 μg ml^−1 doxycycline, which could induce the expression of mTRPA1. The 96-well plate was then put in sterile incubator overnight. The following day, Ca^2+ influx dye Fluo-4/AM stock was diluted to 2 μM with bath solution, and added (50 μl per well) in place of the culture medium. The plate was then incubated to load the Fluo-4/AM into cells for 60 min at 37 °C in dark environment. During the incubation, we prepared the compound plate (96-well) and the margin of plate was set as blank control due to the fringing effect. At the end of dye loading period, the remnant dye was removed using bath solution to wash the 96-well cell plate twice and then add 80 μl bath solution per well.

TRPM8 = biological target: T2, TRPM8 (Homo sapiens, UniProt Q7Z2W7); assay: Calcium fluorescence signal, HEK293 cells overexpressing TRPM8; format: cell-based; conditions: 10 μM
T2 construct: expressed in transfected cells; host or cells: HEK293
Description: as §1, §2

T2 sequence (Q7Z2W7 whole entry, species assumed): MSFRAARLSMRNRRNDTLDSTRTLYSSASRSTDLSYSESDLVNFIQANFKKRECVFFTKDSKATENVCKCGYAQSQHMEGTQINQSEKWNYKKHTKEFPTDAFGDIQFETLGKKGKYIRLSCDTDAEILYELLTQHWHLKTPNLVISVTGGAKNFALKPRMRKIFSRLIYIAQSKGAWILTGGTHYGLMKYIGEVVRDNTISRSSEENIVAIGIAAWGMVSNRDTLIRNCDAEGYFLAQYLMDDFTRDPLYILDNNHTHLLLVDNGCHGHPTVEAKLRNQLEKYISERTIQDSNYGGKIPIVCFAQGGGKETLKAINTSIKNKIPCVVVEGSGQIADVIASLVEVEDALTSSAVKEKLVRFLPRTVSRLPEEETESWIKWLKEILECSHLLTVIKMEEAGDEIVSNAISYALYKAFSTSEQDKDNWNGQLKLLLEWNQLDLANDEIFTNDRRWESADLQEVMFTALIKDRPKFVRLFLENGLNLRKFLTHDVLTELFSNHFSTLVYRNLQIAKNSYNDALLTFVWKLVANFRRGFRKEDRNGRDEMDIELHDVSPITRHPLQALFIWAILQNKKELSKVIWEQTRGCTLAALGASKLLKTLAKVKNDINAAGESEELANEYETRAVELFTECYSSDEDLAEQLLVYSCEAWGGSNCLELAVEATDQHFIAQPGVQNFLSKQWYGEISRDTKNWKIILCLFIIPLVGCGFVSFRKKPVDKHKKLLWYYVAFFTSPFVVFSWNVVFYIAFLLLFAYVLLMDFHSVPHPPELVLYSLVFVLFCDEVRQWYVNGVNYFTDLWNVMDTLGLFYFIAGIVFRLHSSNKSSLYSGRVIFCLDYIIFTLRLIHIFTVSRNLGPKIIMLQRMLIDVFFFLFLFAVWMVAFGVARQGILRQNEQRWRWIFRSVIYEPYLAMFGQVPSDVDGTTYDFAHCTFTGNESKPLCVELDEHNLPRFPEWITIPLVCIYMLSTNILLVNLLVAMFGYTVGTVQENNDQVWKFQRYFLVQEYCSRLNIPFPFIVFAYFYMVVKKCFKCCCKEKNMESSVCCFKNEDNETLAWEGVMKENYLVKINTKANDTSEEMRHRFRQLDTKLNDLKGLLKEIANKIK
mTRPA1, sequence (Q8BLA8 whole entry): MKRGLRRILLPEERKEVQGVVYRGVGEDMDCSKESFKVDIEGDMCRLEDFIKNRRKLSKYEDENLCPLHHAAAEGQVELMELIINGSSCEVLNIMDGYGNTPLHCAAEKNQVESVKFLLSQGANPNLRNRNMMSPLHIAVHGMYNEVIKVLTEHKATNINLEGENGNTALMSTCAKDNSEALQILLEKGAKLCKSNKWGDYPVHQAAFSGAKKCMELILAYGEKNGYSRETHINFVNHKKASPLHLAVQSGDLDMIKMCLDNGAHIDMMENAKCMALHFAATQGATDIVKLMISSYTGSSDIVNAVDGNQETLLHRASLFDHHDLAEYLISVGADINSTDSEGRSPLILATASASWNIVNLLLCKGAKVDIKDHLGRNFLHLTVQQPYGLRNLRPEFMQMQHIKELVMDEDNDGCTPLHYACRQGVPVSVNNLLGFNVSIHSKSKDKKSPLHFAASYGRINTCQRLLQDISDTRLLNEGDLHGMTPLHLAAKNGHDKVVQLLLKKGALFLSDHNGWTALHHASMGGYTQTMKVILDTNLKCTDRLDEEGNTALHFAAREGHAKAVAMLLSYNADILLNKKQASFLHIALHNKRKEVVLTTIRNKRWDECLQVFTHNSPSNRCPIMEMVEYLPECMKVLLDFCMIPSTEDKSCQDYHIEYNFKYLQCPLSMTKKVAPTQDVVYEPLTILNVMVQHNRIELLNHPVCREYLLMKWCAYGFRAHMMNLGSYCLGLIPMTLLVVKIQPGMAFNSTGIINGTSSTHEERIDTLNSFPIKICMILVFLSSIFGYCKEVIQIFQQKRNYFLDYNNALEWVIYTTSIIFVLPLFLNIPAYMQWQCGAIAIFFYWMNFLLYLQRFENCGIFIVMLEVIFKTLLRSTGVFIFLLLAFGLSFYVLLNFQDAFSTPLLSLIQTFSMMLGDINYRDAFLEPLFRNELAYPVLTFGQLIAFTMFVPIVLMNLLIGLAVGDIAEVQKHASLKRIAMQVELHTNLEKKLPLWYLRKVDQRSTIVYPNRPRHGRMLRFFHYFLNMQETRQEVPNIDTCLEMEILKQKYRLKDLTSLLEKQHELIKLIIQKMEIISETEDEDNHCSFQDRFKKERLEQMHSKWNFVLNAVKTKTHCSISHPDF

Q: Which results are given for CCOC(=O)CC(SP(=S)(OC)OC)C(=O)OCC (stereo not drawn) [malathion, S-[1,2-bis (ethoxycarbonyl)ethyl] O, O-dimethyl phosphorodithioate]?
A: response of mutant hTRPA1 compared to WT channels [1]: significantly reduced; activation of TRPV3 (TRPV3): could not activate; EC50 (mTRPA1): 14.2 ± 1.02 µM; activation of TRPM8 (TRPM8): could not activate
